Data: patent publication US20240239786A1, “COMPOSITIONS AND METHODS FOR THE TREATMENT AND PREVENTION OF CANCER” (Yale University, priority 2021, published 2024)

Legend:
PEO4 cells = experiment: Caspase 3/7 assay, PEO4; assay type: cell-based; details: 50 μM olaparib, 24 hr
Method: Cells were pre-treated with 30 μM DB4 for 1 hr and then treated with various concentrations of olaparib for 72 hr. Cell survival was determined by MTS cytotoxicity assay. Data are means±SD (N=3-4). […] EOB calculation was used to quantify the synergy of the combination of DB4 and various concentrations of olaparib in PEO1 or PEO4 cells as shown in FIG. 8A. EOB>0, synergism; EOB=0, additivity; EOB<0, antagonism. […] Cells were pre-treated with 30 μM DB4-F for 1 hr and then treated with various concentrations of olaparib for 72 hr. Cell survival was determined by MTS cytotoxicity assay. Data are means±SD (N=3-4). […] EOB calculation was used to quantify the synergy of the combination of DB4-F and various concentrations of olaparib in PEO1 or PEO4 cells as shown in FIG. 8B. […] Cell survival was determined by MTS cytotoxicity assay. […] Caspase 3/7 activity was expressed as RLU per μg/μl protein. […] Caspase 3/7 activity was expressed as RLU per μg/μl protein. […] Cells were treated and caspase 3/7 activity was measured as described in FIG. 8G and FIG. 8H.
Furthermore, the effects of DB4 on olaparib-induced apoptosis at 24 hr were evaluated. […]
The assay was performed as described previously (Lin Z P et al., 2018, PLOS One, 13:e0207399). […] Total protein concentration of cell lysates was determined as described above. Caspase 3/7 activity was expressed as luminescence units (RLU) per μg/μL protein for each sample.

PEO1 cells = experiment: Flow cytometric EdU incorporation (DNA synthesis) assay, PEO1; assay type: cell-based; details: for cell cycle distribution: 30 μM DB4 or 1 μM triapine; for time-dependent inhibition of DNA synthesis (EdU-positive cells): 30 μM DB4 or 1 μM triapine, 3, 6, 24 hr
Method: Cells were plated for 24 hr and then treated with 50 μM compounds for 72 hr. For a positive control, cells were treated with 1 μM triapine for 72 hr. The percentage of cell survival was determined by the MTS cytotoxicity assay. […] Cells were treated with 50 μM compounds or 1 μM triapine for 24 hr. During the last hour, cells were pulse-labeled with EdU, stained with the Click-iT EdU Alexa Fluor 488 Assay Kit, counterstained with 7-AAD, and subsequently analyzed by flow cytometry. EdU-positive cells were gated to determine the percentage of the S phase cell population. The bivariate plots of Alexa Fluor 488 (EdU-positive) and PE-Cy5 (7-AAD-positive) are shown. […] Cells were treated with 50 μM compounds or 1 μM triapine for 24 hr. During the last hour, cells were pulse-labeled with EdU, stained with the Click-iT EdU Alexa Fluor 488 Assay Kit, counterstained with 7-AAD, and subsequently analyzed by flow cytometry. EdU-positive cells were gated to determine the percentage of the S phase cell population. The percentages of DNA synthesis in cells treated with each of 10 compounds and triapine relative to the DMSO-treated control is calculated and shown. FIG. 2D depicts representative results of dNTP measurement on triapine and DB4 in PEO4 cells. Cells were treated with 1 μM triapine or 50 μM DB4 for 24 hr. Cells were extracted with 65% methanol for determination of each of dNTPs expressed as pmole/10^6 cells. Data are means±SD (N=3). *, p<0.05; **, p<0.01; ***, p<0.001, compared with the DMSO-treated control in each dNTP. […] PEO1 cells were pre-treated with 1 mM dA plus […], 10 mM dC plus 10 mM dT, or all dNs for 1 hr and then treated with various concentrations of DB4 or triapine for 72 hr. The percentage of cell survival was determined by the MTS cytotoxicity assay. Data are means±SD (N=3). *, p<0.05; **, p<0.01; ***, p<0.001, compared with the control in each concentration of DB4 or triapine. FIG. 2F depicts schematic representation of structures and molecular compound names of triapine, DB4, and A4.
PEO1 cells were treated with 30 μM DB4 or 1 μM triapine for indicated times, pulsed with EdU for 1 hr and subsequently assayed for DNA synthesis inhibition as described in FIG. 2B. The bivariate plots of Alexa Fluor 488 and PE-Cy5 were gated to determine % S phase cells. […] PEO4 cells were treated with 30 μM DB4 or 1 μM triapine for indicated times, pulsed with EdU for 1 hr and subsequently assayed for DNA synthesis inhibition as described in FIG. 2B. The bivariate plots of Alexa Fluor 488 and PE-Cy5 were gated to determine % S phase cells. […] The bivariate plots of Alexa Fluor 488 and PE-Cy5 shown in FIG. 6A and FIG. 6B were gated to determine % cells in G1, S, and G2/M phases. […] PEO4 cells were treated with 30 μM DB4 or 1 μM triapine for various time periods and subjected to western blot analysis for the levels of cyclin A2, p-CDK1/2, p-H1, p-Chk1, and HSC70. The HSC70 protein level was used as a loading control. Cropped gel images of protein bands are presented. Cyclin A2, p-CDK1/2, and p-H1 bands were from re-probing the same blot. p-Chk1 and HSC70 bands were from re-probing the same duplicated blot. […] The CDK2 activity is expressed by the percentage of the p-HI levels relative to that of the 0 hr control is shown. […] Protein was analyzed by western blotting for p-Chk1, p-ATR, p-RPA32, γH2AX, and HSC70. Cropped gel images of protein bands are presented. All protein bands were from re-probing the same blot. DSB end resection is assessed by the level of p-RPA32. […]

Row | Compound | effect on olaparib-induced caspase 3/7 activity (PEO4 cells; DB4 starting at 7.5 μM) | cell cycle distribution (PEO1 cells) | time-dependent inhibition of DNA synthesis (EdU-positive cells) (PEO1 cells) | inhibition at 50 µM (PEO1 cells; Homo sapiens, 50 μM, 24 hr) [%] | caspase 3/7 activity, olaparib alone (PEO4 cells)
1 | C=CCn1c(SCc2cccc(Cl)c2)nnc1C1CCN(Cc2nc3ccccc3s2)CC1 [DB4, 2-[(4-{4-allyl-5-[(3-chlorobenzyl)thio]-4H-1,2,4-triazol-3-yl}-1-piperidinyl)methyl]-1,3-benzothiazole] | markedly augmented | expansion of the G2/M population | gradual decline in the EdU-positive cell population | > 99 | –
2 | O=C(c1cc(Cc2n[nH]c(=O)c3ccccc23)ccc1F)N1CCN(C(=O)C2CC2)CC1 [olaparib, reference compound] | – | – | – | – | minor increase in caspase 3/7 activity
3 | NC(=S)NN=Cc1ncccc1N [triapine, 3-aminopyridine-2-carboxaldehyde-thiosemicarbazone, reference compound] | – | expansion of the G2/M population | prompt reduction in EdU-positive cells | – | –
